Source: ChEMBL document CHEMBL4507276 (2021)

Columns and labels:
[1] = biological target: Matrix metalloproteinase-9 (Homo sapiens) (UniProt P14780); test: MMP-9 (H) Cerep selectivity data (BI); details: Compound concentration 20.0 uM
[2] = biological target: T1, cGMP-dependent protein kinase 1 (Homo sapiens) (UniProt Q13976); test: PRKG1 Invitrogen selectivity data (BI); details: Compound concentration 3.0 uM
T1 sequence (whole entry): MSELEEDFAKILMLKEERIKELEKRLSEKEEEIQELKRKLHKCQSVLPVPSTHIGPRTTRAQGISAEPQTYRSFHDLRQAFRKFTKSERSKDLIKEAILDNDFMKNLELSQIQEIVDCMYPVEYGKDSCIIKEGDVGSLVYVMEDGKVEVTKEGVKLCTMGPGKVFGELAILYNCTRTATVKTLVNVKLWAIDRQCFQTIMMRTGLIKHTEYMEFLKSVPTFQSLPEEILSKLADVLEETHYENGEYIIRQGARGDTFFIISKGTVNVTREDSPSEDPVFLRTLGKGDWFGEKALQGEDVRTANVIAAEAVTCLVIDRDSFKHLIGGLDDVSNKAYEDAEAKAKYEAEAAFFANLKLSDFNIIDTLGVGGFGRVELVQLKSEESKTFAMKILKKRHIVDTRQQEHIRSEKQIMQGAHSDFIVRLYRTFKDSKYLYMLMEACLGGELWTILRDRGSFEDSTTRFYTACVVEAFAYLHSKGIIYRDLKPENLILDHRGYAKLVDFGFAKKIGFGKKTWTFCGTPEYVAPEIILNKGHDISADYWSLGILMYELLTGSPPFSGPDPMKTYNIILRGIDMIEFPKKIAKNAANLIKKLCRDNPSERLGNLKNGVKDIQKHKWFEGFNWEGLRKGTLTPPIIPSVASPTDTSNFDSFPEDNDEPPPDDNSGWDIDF

[3] = biological target: MAP kinase-activated protein kinase 3 (Homo sapiens) (UniProt Q16644); test: MAPKAPK3 Invitrogen selectivity data (BI); details: Compound concentration 3.0 uM
[4] = biological target: Beta-2 adrenergic receptor (Homo sapiens) (UniProt P07550); test: BETA2/HUM Cerep selectivity data (BI); details: filed as antagonist, Compound concentration 20.0 uM
[5] = biological target: Phosphatidylinositol 3-kinase regulatory subunit gamma (Bos taurus) (UniProt O46404); test: PROTKINP55 Cerep selectivity data (BI); details: Compound concentration 20.0 uM
[6] = biological target: Melanocortin receptor 4 (Homo sapiens) (UniProt P32245); test: MC4/HU Cerep selectivity data (BI); details: Compound concentration 20.0 uM
[7] = biological target: Bone morphogenetic protein receptor type-1A (Homo sapiens) (UniProt P36894); test: BMPR1A(ALK3) Invitrogen selectivity data (BI); details: Compound concentration 3.0 uM
[8] = biological target: Endothelin-1 receptor (Homo sapiens) (UniProt P25101); test: ETA/HU Eurofins-Panlabs selectivity data (BI); details: Compound concentration 10.0 uM
[9] = biological target: D(3) dopamine receptor (Homo sapiens) (UniProt P35462); test: D3/HU Eurofins-Panlabs selectivity data (BI); details: Compound concentration 10.0 uM
[10] = biological target: cGMP-specific 3',5'-cyclic phosphodiesterase (Homo sapiens) (UniProt O76074); test: PDE5 Cerep selectivity data (BI); details: Compound concentration 20.0 uM
[11] = biological target: Serine/threonine-protein kinase Nek6 (Homo sapiens) (UniProt Q9HC98); test: NEK6 Invitrogen selectivity data (BI); details: Compound concentration 3.0 uM
[12] = biological target: LIM domain kinase 2 (Homo sapiens) (UniProt P53671); test: LIMK2 Invitrogen selectivity data (BI); details: Compound concentration 3.0 uM
[13] = biological target: Cyclin-dependent kinase 5/CDK5 activator 1 (Homo sapiens) (UniProt Q00535+Q15078); test: CDK5/P25 Invitrogen selectivity data (BI); assay type: protein-complex assay; details: Compound concentration 3.0 uM
[14] = biological target: SRSF protein kinase 1 (Homo sapiens) (UniProt Q96SB4); test: SRPK1 Invitrogen selectivity data (BI); details: Compound concentration 3.0 uM
[15] = biological target: Serine/threonine-protein kinase 25 (Homo sapiens) (UniProt O00506); test: STK25 Invitrogen selectivity data (BI); details: Compound concentration 3.0 uM
[16] = biological target: T2, Ephrin type-A receptor 1 (Homo sapiens) (UniProt P21709); test: EPHA1 Invitrogen selectivity data (BI); details: Compound concentration 3.0 uM
T2 sequence (whole entry): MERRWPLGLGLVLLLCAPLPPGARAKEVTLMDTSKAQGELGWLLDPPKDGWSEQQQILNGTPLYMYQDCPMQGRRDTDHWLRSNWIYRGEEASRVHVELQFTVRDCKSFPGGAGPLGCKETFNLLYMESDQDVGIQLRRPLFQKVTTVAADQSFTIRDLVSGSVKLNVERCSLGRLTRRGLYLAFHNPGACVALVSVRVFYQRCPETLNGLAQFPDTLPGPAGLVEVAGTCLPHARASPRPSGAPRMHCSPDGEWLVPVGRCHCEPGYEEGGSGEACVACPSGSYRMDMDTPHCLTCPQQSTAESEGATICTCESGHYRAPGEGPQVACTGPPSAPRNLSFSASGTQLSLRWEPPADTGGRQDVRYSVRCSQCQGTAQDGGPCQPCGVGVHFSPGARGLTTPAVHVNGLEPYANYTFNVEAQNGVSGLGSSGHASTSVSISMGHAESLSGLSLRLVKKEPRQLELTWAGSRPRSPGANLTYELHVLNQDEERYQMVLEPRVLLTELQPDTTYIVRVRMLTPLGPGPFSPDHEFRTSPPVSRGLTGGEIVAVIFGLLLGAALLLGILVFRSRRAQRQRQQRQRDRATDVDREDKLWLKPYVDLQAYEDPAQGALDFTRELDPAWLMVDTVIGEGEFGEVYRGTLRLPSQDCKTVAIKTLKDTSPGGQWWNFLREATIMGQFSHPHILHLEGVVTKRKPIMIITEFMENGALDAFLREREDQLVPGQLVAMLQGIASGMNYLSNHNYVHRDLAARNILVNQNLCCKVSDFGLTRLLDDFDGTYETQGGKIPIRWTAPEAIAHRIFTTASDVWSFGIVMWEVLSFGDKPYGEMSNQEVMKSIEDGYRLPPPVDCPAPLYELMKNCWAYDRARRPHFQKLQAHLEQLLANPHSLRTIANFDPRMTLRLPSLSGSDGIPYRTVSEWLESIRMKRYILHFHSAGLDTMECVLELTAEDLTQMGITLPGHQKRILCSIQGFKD

[17] = biological target: Calcium/calmodulin-dependent protein kinase type II subunit delta (Homo sapiens) (UniProt Q13557); test: CAMK2D Invitrogen selectivity data (BI); details: Compound concentration 3.0 uM
[18] = biological target: 5-hydroxytryptamine receptor 2A (Homo sapiens) (UniProt P28223); test: 5HT2AH_AGON Cerep selectivity data (BI); details: filed as agonist, Compound concentration 20.0 uM

Measured: residual activity

Chain of D(3) dopamine receptor (Homo sapiens) (P35462 whole entry): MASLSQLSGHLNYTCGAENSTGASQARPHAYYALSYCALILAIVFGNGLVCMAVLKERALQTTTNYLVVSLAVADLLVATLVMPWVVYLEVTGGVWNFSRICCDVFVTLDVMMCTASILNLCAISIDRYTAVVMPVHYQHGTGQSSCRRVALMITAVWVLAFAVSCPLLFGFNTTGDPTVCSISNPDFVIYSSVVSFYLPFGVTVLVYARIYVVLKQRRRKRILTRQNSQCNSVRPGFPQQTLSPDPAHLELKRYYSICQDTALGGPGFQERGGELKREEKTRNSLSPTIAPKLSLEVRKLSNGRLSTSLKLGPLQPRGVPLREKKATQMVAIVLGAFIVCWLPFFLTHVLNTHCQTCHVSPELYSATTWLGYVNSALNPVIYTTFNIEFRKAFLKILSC
Chain of Beta-2 adrenergic receptor (Homo sapiens) (P07550 whole entry, looked up): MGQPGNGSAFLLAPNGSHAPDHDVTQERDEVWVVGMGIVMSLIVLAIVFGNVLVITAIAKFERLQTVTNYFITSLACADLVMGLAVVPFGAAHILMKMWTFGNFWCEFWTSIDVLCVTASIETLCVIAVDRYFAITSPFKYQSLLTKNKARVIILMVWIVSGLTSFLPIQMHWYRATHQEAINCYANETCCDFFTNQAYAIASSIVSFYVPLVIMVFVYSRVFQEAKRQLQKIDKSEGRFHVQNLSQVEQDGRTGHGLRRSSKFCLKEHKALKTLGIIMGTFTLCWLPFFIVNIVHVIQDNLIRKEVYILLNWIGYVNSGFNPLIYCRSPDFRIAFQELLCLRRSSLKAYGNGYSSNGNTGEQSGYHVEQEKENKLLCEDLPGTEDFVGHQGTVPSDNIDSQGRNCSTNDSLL
Chain of 5-hydroxytryptamine receptor 2A (Homo sapiens) (P28223 whole entry): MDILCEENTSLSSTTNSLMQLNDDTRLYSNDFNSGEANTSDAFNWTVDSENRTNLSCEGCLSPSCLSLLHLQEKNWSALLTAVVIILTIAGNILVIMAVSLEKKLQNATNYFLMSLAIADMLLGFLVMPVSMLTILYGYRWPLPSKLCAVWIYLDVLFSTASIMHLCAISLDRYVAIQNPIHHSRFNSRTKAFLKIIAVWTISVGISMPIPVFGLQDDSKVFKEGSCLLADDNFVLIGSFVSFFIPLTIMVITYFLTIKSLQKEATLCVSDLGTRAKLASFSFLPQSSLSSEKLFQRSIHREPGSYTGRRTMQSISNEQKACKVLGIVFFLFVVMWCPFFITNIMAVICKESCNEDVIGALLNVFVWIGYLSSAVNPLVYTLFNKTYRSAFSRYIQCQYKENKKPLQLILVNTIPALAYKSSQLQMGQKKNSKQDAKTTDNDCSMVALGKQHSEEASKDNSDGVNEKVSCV
Chain of Matrix metalloproteinase-9 (Homo sapiens) (P14780 whole entry): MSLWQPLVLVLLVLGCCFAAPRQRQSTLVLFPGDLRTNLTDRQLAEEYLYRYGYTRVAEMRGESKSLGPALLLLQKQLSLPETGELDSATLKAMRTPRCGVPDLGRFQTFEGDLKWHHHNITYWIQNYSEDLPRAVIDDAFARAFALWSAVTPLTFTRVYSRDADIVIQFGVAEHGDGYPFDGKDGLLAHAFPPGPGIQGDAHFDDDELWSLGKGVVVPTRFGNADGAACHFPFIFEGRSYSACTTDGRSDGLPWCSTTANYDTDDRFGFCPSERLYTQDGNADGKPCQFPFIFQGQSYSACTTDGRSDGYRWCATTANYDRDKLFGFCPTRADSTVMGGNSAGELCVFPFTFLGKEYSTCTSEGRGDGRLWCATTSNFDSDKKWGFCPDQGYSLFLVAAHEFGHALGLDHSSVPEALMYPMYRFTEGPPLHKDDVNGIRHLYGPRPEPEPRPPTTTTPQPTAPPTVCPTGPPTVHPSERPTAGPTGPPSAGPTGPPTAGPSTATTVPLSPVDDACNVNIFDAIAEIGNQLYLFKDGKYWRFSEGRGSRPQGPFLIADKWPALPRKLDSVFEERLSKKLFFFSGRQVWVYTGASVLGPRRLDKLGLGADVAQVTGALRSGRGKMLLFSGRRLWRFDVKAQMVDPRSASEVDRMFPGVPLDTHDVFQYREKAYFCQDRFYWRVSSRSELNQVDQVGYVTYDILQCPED
Chain of Serine/threonine-protein kinase Nek6 (Homo sapiens) (Q9HC98 whole entry, the tested form may be a part): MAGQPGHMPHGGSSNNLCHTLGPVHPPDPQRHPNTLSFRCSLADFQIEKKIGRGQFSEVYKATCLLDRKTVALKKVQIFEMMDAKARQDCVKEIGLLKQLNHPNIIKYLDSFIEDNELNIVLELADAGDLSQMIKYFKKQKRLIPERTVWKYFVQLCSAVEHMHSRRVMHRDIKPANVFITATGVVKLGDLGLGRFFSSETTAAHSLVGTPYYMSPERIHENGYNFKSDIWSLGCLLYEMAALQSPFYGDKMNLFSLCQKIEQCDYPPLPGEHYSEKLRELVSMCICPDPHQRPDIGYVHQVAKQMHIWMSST
Chain of LIM domain kinase 2 (Homo sapiens) (P53671 whole entry, looked up, the tested form may be a part): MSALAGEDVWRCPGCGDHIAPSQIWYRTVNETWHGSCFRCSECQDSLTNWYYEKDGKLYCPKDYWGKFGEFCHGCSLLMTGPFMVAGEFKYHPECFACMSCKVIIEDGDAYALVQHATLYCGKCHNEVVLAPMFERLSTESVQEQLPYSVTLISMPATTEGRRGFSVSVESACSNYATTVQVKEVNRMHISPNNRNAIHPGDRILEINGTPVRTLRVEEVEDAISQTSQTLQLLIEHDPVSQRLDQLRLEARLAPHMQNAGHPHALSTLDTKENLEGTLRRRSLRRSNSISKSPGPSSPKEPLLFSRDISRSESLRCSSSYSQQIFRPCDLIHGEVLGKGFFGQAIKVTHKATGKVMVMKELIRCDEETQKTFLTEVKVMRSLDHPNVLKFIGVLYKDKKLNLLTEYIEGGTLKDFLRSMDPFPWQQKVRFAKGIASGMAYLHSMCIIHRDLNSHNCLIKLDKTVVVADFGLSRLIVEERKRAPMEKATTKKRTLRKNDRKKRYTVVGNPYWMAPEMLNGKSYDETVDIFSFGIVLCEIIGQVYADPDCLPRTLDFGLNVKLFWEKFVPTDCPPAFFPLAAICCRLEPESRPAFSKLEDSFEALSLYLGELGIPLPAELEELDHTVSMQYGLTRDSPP
Chain of Melanocortin receptor 4 (Homo sapiens) (P32245 whole entry): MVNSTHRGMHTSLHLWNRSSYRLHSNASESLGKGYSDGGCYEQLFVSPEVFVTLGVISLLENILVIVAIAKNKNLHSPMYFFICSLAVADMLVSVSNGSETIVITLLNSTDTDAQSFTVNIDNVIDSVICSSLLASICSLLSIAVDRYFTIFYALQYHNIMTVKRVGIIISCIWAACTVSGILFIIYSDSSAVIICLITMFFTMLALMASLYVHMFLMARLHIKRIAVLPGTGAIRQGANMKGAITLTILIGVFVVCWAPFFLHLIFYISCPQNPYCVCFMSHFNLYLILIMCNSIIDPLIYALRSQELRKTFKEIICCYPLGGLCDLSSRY
Chain of SRSF protein kinase 1 (Homo sapiens) (Q96SB4 whole entry): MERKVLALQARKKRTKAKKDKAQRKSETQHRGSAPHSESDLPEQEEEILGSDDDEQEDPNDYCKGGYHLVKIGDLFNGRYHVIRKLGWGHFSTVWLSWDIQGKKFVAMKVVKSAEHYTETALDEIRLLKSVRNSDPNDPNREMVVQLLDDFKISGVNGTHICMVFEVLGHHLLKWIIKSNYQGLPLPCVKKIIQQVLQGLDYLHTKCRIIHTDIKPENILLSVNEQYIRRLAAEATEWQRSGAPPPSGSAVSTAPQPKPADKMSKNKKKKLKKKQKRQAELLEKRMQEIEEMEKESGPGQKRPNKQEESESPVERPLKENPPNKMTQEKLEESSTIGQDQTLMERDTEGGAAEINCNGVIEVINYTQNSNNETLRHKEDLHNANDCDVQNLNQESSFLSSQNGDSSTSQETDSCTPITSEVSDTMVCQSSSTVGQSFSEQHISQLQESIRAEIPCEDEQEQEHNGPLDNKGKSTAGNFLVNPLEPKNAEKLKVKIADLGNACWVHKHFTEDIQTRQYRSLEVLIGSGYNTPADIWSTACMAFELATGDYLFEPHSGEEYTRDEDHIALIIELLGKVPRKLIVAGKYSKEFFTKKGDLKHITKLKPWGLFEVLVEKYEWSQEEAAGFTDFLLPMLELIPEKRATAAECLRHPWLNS
Chain of Calcium/calmodulin-dependent protein kinase type II subunit delta (Homo sapiens) (Q13557 whole entry): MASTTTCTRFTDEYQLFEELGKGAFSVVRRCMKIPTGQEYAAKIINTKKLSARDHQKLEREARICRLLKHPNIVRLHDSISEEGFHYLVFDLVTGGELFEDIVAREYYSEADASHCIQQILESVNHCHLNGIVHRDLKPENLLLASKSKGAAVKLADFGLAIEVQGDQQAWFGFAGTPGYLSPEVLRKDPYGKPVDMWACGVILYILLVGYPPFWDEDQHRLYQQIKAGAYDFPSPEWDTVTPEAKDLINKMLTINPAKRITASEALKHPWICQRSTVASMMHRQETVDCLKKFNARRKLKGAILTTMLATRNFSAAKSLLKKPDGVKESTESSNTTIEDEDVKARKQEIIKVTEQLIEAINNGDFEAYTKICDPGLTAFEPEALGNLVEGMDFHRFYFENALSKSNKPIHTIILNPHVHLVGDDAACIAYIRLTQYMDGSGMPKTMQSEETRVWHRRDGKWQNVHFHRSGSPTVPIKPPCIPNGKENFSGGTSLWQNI

CN(C)C(=O)Cn1cc(-c2nc([C@@](C)(c3ccc(-c4cnc(N)nc4)cc3)C3CC3)no2)cn1 [BI 665915]
inactive: [1] 83% | [2] 102% | [3] 98.5% | [4] 98% | [5] 98% | [6] 109% | [7] 87% | [8] 98% | [9] 97% | [10] 89% | [11] 96% | [12] 89% | [13] 100% | [14] 97.5% | [15] 106% | [16] 89% | [17] 94.5% | [18] 102%
